Experimental data reported in patent US5204241A, “Glutathione-S-transferase mu as a measure of drug resistance” (Oxi-Gene Inc., priority 1990, dated 1993).

Tested on: glutathione transferase (GST-tSBO, identical to GST-mu)
Test: Glutathione transferase activity of human liver cytosols (105,000 g supernatants) toward tauromustine and trans-stilbene oxide as substrates
Type: in vitro ADME
Experimental: Human liver biopsies from ? 3 individuals were homogenized in 5 vol. of 0.25 M sucrose, centrifuged at 10,000 g for 15 minutes and then the resulting supernatant was re-centrifuged at 105,000 g for one hour. The 105,000 g supernatants were analyzed for glutathione transferase activity using trans-stilbene oxide (tSBO) and tauromustine as substrates. Metabolism of these substrates to glutathione conjugates was monitored by radiometric procedures involving differential organic solvent extraction, see Gill, S., Ota, J. and Hammock, B. D. Anal. Biochem. 131: 273-282 (1983), and high pressure liquid chromatography (HPLC).

## CN(C)S(=O)(=O)CCNC(=O)N(CCCl)N=O [tauromustine]
Human liver cytosols with GST-tSBO activity 0-10 nmo/min/mg protein (GST mu lacking)
  glutathione transferase activity toward tauromustine: 0-2 nmol/min/mg protein
Human liver cytosols with easily detectable GST-tSBO activity, 25-65 nmol/min/mg protein (GST mu present)
  glutathione transferase activity toward tauromustine (metabolism of tauromustine): 4-19 nmol/min/mg protein
Human liver cytosols, GST mu (+) vs (-)
  extent of metabolism by human liver cytosols having GST mu activity versus cytosols lacking GST mu activity: metabolized to a much greater extent
